# Test results reported in patent US7183440B2, “Pharmaceutically useful compounds” (priority 2005, dated 2007).
# Like-named read-outs stand apart in the source and are kept apart here.
# Legend:
# HSF = HSF activation, luciferase reporter controlled by the human hsp70 promoter in HeLa cell clone 13B; assay type: cell-based; settings: read-out: HSF AC200/μM
# Method: (§1) HeLa cell clone 13B, stably transfected with a luciferase reporter plasmid controlled by the human hsp70 promoter, and HeLa κB-transformed cells, stably transfected with a luciferase reporter plasmid controlled by a synthetic NF-κB-STM construct, were maintained in DMEM medium supplemented with 10% FBS, L-glutamine (2 mM) and G418 (250 μg/ml) at 37° C. in a 5% CO2 humidified atmosphere.
# (§2) Cells were seeded at a density of 4×10^4 cells/well in 96-well plates. After 18–20 h, the medium was removed and cells were treated for 8 h with the test compounds (100 μl) at the appropriate dilutions in serum-free medium. For the NF-κB-dependent reporter gene assay, cells were stimulated with TPA (25 ng/ml) 2 h after exposure to the compounds.
# (§3) After incubation, the medium was removed and cells were lysed in 10 μl of lysis buffer. The luciferase activity was determined by adding 100 μl of substrate and measuring the release of light using a Victor 1420 microplate reader (Wallac, Finland).
# (§4) The AC200/μM for HSF is the concentration at which the tested compound doubled the HSF activity in this assay. The IC50/μM for NF-κB is the concentration at which the tested compound halved the NF-κB activity in this assay. […] The LC50/μM is the concentration at which the tested compound killed half the cells in each assay. […] (n.d. means not done)
# Sendai virus = assay: Replication of Sendai virus in 37RC cells, virus yield by haemagglutinin titration; assay type: cell-based; settings: Respirovirus muris; 50% inhibitory dose/concentration at 24 hours, Sendai virus in 37RC cells; read-out: ID50/μM
# Method: Monkey kidney 37RC cells were grown at 37° C. in RPMI medium supplemented with 5% foetal bovine serum (FBS), L-glutarine (2 mM) and antibiotics. Sendai virus was grown in the allantoic cavity of 10-day-old embryonated eggs. Viral titre was expressed in haemagglutinating units (HAU) per ml; haemagglutinin titration was done according to standard procedures, as described in C. Amici et al. (J. Virol. 68: 6890–6899, 1994). […] Confluent 37RC monolayers were infected with Sendai Virus (5 HAU/ml) for 1 h at 37° C. After 1 hour incubation, viral inoculum was removed and cells were treated with the test compounds at different concentrations. Virus yields were determined 24 h post infection by haemagglutinin titration. Mock-infected cells were treated identically and processed for cytotoxicity assay (Neutral Red assay) at the same time (see below). The results were expressed as HAU/ml (each point represents the mean of duplicate samples).
# Monkey kidney 37RC cells = assay type: cell-based; settings: concentration 100% toxic to uninfected 37RC cells, visually by microscopy
# in vitro [1] = assay type: cell-based; settings: monkey, 50% lethal dose/concentration, neutral red assay, 37RC cells, read-out: LC50/μM
# Method: Cell viability was determined using the Neutral Red assay.
# in vitro [2] = assay type: cell-based; settings: human
# Method: HeLa cells were plated in 96-well microtiter plates in 100 μl culture medium (4×10^4/well). After 20 hours, the cells were exposed to the test compounds at different dilutions and incubated for the next 8 h at 37° C. in a 5% CO2 humidified atmosphere. After 6 h incubation, the Alamar Blue was added in an amount equal to 10% of the culture volume (10 μl). Two hours after the addition of the Alamar Blue, the fluorescence was measured using a Victor 1420 microplate reader.
# NF-κB [3] = assay: NF-κB-dependent luciferase reporter gene assay in HeLa κB-transformed cells stimulated with TPA; assay type: cell-based, human
# Method: as §1, §2, §3
# (§5) The fragment Kpn I-BamH I from the pGL3 basic vector containing the luciferase gene (PROMEGA) was inserted in the pcDNA3 vector (INVITROGEN) digested with Bgl II-KpnI. (This digestion removes the CMV-promoter from pcDNA3.) The resulting new vector was digested with Kpn I-Hind III and a promoter containing a ‘5×NF-κB binding sites-TATA box’ sequence was inserted upstream of the luciferase gene. This vector has been named STM.
# (§6) To obtain stable HeLa cell lines expressing the luciferase gene under the control of NF-κB, HeLa cells were transfected (using lipofectamine plus GIBCO) with the STM-Pvu I linearized vector, and selected for 20 days with G418 (800 μg/ml). After selection, the resistant HeLa cell pool was controlled (in quadruplicate samples) for luciferase activity after stimulation with TNFα, IL-1 and TPA.
# as §4
# [4] = Blood pressure of the anaesthetized rat, intravenous infusion; assay type: in vivo; settings: doses from 30 μg/kg/min
# Description: Most prostaglandins have strong effects on vascular smooth muscle, and will lower blood pressure in animals and humans. A compound can be tested for its effect on the blood pressure of the anaestheized rat. Prostaglandins A1 and E1 can be used for comparison. Male Wistar rats were anaesthetized and test drugs can be infused intravenously. Blood pressure and heart rate can be recorded from the femoral artery. […] It can be determined whether or not a test compound affects blood pressure at various dosages. As a control, solvent alone can be used.
# NF-κB [5] = assay: Luciferase activity of NF-κB-LUC transfected HeLa cell pool after stimulation; assay type: cell-based, human; settings: resistant HeLa cell pool, quadruplicate samples; control 1369±149
# Description: as §5, §6
# HSF1 = settings: cited from earlier work
# NF-κB [6] = settings: at the same concentration (125–500 μM); cited from earlier work
# HeLa cells = assay: in vitro; settings: read-out: Toxicity Neutral Red LC50/μM; HeLa cells; concentration that killed half the cells
# Method: This assay was carried out on HeLa cells using a technique analogous to that described below in Example 36(b) for Monkey Kidney 37RC cells.
# as §4
# Cell viability was determined using the Neutral Red assay. 37RC cells were seeded at density of 6×10^4 cells/well in 24-well plates and incubated for 24 h. Confluent 37RC monolayers were treated with the test compounds at different dilutions for 24 h at 37° C. After incubation, the medium was removed and the cells were incubated with RPMI medium containing 40 μg/ml Neutral Red dye (500 μl/well). After 2 h at 37° C., the monolayers were washed with phosphate-buffered saline (PBS) and then with a solution containing 1% CaCl2 and 0.5% formaldehyde. After washing, a solution containing 1% acetic acid/50% ethanol was added to the monolayers (250 μl/well). After 10 min at room temperature, the absorbance was determined with a microplate reader (Victor 1420, Wallac) at 540 nm.
molecule,measurement,setting,value
"CC(C)/C=C1/C(=O)C=CC1NC(=O)c1ccccc1 (stereo not drawn) [CTC-172, N-(5-iso-Butylidene-4-oxocyclopent-2-enyl)-benzamide]",EC (2-fold HSF activity),"HSF; Homo sapiens, concentration at which the compound doubled HSF activity, HeLa clone 13B, 8 h treatment",< 6.2 µM
same,IC50,Sendai virus,0.3 µM
same,TD100/μM,Monkey kidney 37RC cells,10 µM
same,CC50 at 24 h,in vitro [1],4 µM
same,CC50 at 8 h,in vitro [2],50 µM
same,IC50,"NF-κB [3]; Homo sapiens, concentration that halved NF-κB activity, HeLa reporter cells, TPA 25 ng/ml, 8 h treatment",< 6.2 µM
CCCCC[C@H](O)/C=C/[C@H]1C=CC(=O)[C@@H]1CCCCCCC(=O)O [Prostaglandin A1],effect on blood pressure,[4],dose-dependant falls in blood pressure
CCCCC[C@H](O)/C=C/[C@H]1[C@H](O)CC(=O)[C@@H]1CCCCCCC(=O)O [Prostaglandin E1],effect on blood pressure,[4],dose-dependant falls in blood pressure
CCCCCCCCCCCCCC(=O)O[C@@H]1[C@@H](C)[C@@]2(O)[C@@H](C=C(CO)C[C@]3(O)C(=O)C(C)=C[C@@H]23)[C@H]2C(C)(C)[C@]12OC(C)=O [TPA],luciferase activity,NF-κB [5],7181±444
O=C1C=CCC1 [cyclopent-2-en-1-one],concentration able to activate HSF1 and trigger synthesis of HSP70,HSF1,125 to 500 µM
same,block of NF-κB activation by chemical or physiological inducers,NF-κB [6],able to block NF-κB activation
TNFα,luciferase activity,NF-κB [5],6111±1231
"[(1R,2S)-2-(Naphthalen-2-ylsulfanyl)-4-oxocyclopentyl]-carbamic acid methyl ester; compound with benzene [CTM-237]",CC50,HeLa cells,183 µM
same,EC (2-fold HSF activity),HSF,28 µM
same,IC50,NF-κB [3],9 µM
